Measurements reported in patent US5874235A, “Screening assays for cancer chemopreventative agents” (The Johns Hopkins University, priority 1997, dated 1999).
Read-outs that look alike come from different tables or passages of the source.

Tests used:
[1] = tested on: primary human diploid fibroblast (HDF); test: Apoptosis in primary fibroblasts; type: cell-based; details: 200 μM SUS, 48 hours, read-out: cells that had undergone apoptosis
Experimental: This ability of SUS is not limited to colon cancer cells; primary fibroblasts and immortalized keratinocytes can increase ceramide levels and undergo apoptosis in response to SUS. […] Forty-eight hours after exposure to 200 μM SUS greater than 70% of the cells had undergone apoptosis and ceramide levels were 8.2 and 4.7 fold increased in HDF and HaCat cells, respectively. This is consistent with NSAIDs' ability to reduce tumor formation in a variety of tissues (19) and their adverse effects on normal gastric mucosa, but it fails to explain the apparent greater sensitivity of tumor cells. The in vivo effect will likely depend on the local concentration of the NSAID in the incipient tumor microenvironment as well as the target cell's "lipid biostat" (20). The fact that the concentration of SUS is higher in the intestines than in other organs, due to enterohepatic circulation and due to the metabolic activation of sulindac to SUS by gut flora (21), may be responsible for its particular efficacy in intestinal tumorigenesis.

SW480 cells [2] = type: cell-based, human; details: SUS 100 μM
[3] = tested on: primary human diploid fibroblast (HDF); test: Ceramide levels in primary fibroblasts; type: cell-based; details: 200 μM SUS, 48 hours, read-out: increase in ceramide levels
Experimental: (§1) Ceramide levels were measured using the Escherichia coli diacylglycerol (DAG) kinase assay as previously described (30) with the following modifications. After the initial lipid extraction, phases were broken by adding 2 ml chloroform and 2 ml 1M NaCl and lipids were washed with 1M NaCl prior to drying under nitrogen (32, 33). After solubilization, samples were sonicated for 15 seconds. The DAG reaction was performed for 30 minutes at 25° C. in a 100 μl reaction volume with 3.5 μg DAG kinase (Calbiochem) and […] γ^32 P-ATP (Dupont NEN, 6000 Ci/mmol). After extraction of the labeled lipids, the lower chloroform phase was washed with 1% HCl prior to drying under nitrogen. The solvent mixture for thin layer chromatography was chloroform:acetone:methanol:acetic acid:water (10:4:3:2:1). Samples were quantitated using a Phosphorimager (Molecular Dynamics).
(§2) This ability of SUS is not limited to colon cancer cells; primary fibroblasts and immortalized keratinocytes can increase ceramide levels and undergo apoptosis in response to SUS. […] Forty-eight hours after exposure to 200 μM SUS greater than 70% of the cells had undergone apoptosis and ceramide levels were 8.2 and 4.7 fold increased in HDF and HaCat cells, respectively. […]

SW480 cells [4] = test: Phosphatidylserine exposure by merocyanine staining; type: cell-based, human; details: 200 μM SUS, 50 hours
Experimental: (§3) Phosphatidylserine exposure was assessed by merocyanine staining as previously described (31). Forty-eight hours after treatment with 125 μM SUS, 44% of HCT116 stained with merocyanine versus 4% in the vehicle-treated control cells. Likewise, 74% of SW480 cells stained with merocyanine 50 hours after treatment with 200 μM SUS versus 1.5% of the vehicle-treated control cells.

HCT116 cells [5] = test: as above; type: cell-based, human; details: 125 μM SUS, 48 hours
Experimental: as §3

HCT116 cells [6] = type: cell-based, human
Experimental: FIGS. 1A, 1B and 1C NSAID induce apoptosis in human colorectal cancer cells. In FIG. […] Cells were collected at the indicated times, fixed and stained with Hoechst 33258 (23). The cells were counted and those with fragmented nuclei were scored as apoptotic. In FIG. 1B, HCT116 and SW480 cells were treated with SUS or INDO for 60 hours, harvested and stained as described above. Cells treated with SUS or INDO show the hallmarks of apoptosis.
(§4) This death appeared to be apoptotic, as it was accompanied by nuclear condensation and fragmentation (FIG. 1B) and exposure of phosphatidylserine groups on the cell surface, two hallmarks of apoptosis (11, 12).

SW480 cells [7] = type: cell-based, human
Experimental: FIGS. 1A, 1B and 1C NSAID induce apoptosis in human colorectal cancer cells. In FIG. 1A, HCT116 and SW480 cells were treated with indomethacin (INDO) (300 μM) or SUS (125 μM for HCT116 and 200 μM for SW480 cells). Cells were collected at the indicated times, fixed and stained with Hoechst 33258 (23). The cells were counted and those with fragmented nuclei were scored as apoptotic. In FIG. 1B, HCT116 and SW480 cells were treated with SUS or INDO for 60 hours, harvested and stained as described above. Cells treated with SUS or INDO show the hallmarks of apoptosis.
as §4

[8] = tested on: neutral sphingomyelinase in HCT116 cell lysates; test: Neutral sphingomyelinase activity in lysates of treated cells (14C-sphingomyelin hydrolysis); type: cell-based, human; details: for neutral sphingomyelinase activity relative to untreated controls: 200 μM SUS
Experimental: (§5) To test whether the increased ceramide was associated with evidence of augmented sphingomyelinase activity, we measured total sphingomyelin levels after SUS treatment. […] We also measured neutral sphingomyelinase activity in lysates from the treated cells and no differences were found. Neutral sphingomyelinase activity was assayed as described (18). After cell lysis, protein concentrations were determined using the Bradford method (Bio-Rad) and […] cellular protein was used in each assay. Neutral sphingomyelinase activity was determined by measuring the rate of hydrolysis of ^14 C-labelled sphingomyelin (Amersham). SW480 and HCT116 cell lines were treated with SUS (50, 200, and 600 μM) for 6 to 24 hours.

[9] = tested on: neutral sphingomyelinase in SW480 cell lysates; test: as above; type: cell-based, human; details: SUS 50, 200 and 600 μM, 6 to 24 hours
Experimental: as §5

[10] = tested on: immortalized human keratinocytes (HaCat); test: Ceramide levels in immortalized keratinocytes; type: cell-based; details: 48 h, read-out: increase in ceramide levels
Experimental: as §1, §2

**Q.** Which cytotoxicity at 200 µM [1] does the source give for `CSc1ccc(/C=C2/C(C)=C(CC(=O)O)c3cc(F)ccc32)cc1` [SUS, sulindac sulfide] here?
**A.** > 70%

**Q.** And the cell death (SW480 cells [2])?
**A.** not at 100 μM

**Q.** What about the fold induction at 200 µM [3] of the same molecule?
**A.** 8.2

**Q.** What about the “cells stained with merocyanine” value (SW480 cells [4]) of the same molecule?
**A.** 74%

**Q.** What about the “cells stained with merocyanine” value (HCT116 cells [5]) of the same molecule?
**A.** 44%

**Q.** And the apoptosis (HCT116 cells [6]; 200 μM SUS, 16 hours)?
**A.** the majority of cells had not yet undergone apoptosis

**Q.** And the cell death (HCT116 cells [6]; SUS 50 μM)?
**A.** induced neither

**Q.** And the apoptosis (HCT116 cells [6]; SUS 125 μM, with or without 10 μM CHX, 48 hours)?
**A.** underwent apoptosis

**Q.** What about the apoptosis (SW480 cells [7]; 200 μM SUS, 16 hours) of the same molecule?
**A.** the majority of cells had not yet undergone apoptosis

**Q.** What about the apoptosis (SW480 cells [7]; SUS 200 μM, with or without 10 μM CHX, 48 hours) of the same molecule?
**A.** underwent apoptosis

**Q.** And the “neutral sphingomyelinase activity relative to untreated controls” value ([8]; 6 hours)?
**A.** 90%

**Q.** What about the “neutral sphingomyelinase activity relative to untreated controls” value ([8]; 16 hours) of the same molecule?
**A.** 92%

**Q.** And the “neutral sphingomyelinase activity in cell lysates” value ([8]; SUS 50, 200 and 600 μM, 6 to 24 hours)?
**A.** None of these treatments enhanced neutral sphingomyelinase activity

**Q.** What about the “neutral sphingomyelinase activity in cell lysates” value [9] of the same molecule?
**A.** None of these treatments enhanced neutral sphingomyelinase activity

**Q.** What about the fold induction at 200 µM [10] of the same molecule?
**A.** 4.7
